Experimental data from paper PMC6199744, “Development of Chemical Proteomics for the Folateome and Analysis of the Kinetoplastid Folateome” (ACS Infectious Diseases, 2018).
Where two headings read alike, the source gives them in different places.

Experiments:
Format in all cases: binding
[1] = biological target: T1, HeLa cell extract proteins (Homo sapiens, UniProt P00367)
T1 construct: endogenous in cells; host or cells: HeLa cell extract

[2] = biological target: T2, HeLa cell extract proteins (Homo sapiens, UniProt P04406)
T2 construct: endogenous in cells; host or cells: HeLa cell extract
T2 sequence (P04406 whole entry): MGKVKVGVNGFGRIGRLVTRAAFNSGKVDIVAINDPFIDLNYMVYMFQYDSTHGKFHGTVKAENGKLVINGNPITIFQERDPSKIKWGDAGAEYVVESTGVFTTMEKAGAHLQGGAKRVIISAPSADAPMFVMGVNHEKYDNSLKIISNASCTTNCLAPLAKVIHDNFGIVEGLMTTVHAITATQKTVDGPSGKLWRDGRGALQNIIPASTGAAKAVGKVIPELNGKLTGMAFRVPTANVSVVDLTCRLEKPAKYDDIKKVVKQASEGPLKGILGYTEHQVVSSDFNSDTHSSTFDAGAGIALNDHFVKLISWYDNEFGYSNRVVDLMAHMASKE

[3] = biological target: T3, HeLa cell extract proteins (Homo sapiens, UniProt Q92945)
T3 construct: endogenous in cells; host or cells: HeLa cell extract
T3 sequence (Q92945 1-711): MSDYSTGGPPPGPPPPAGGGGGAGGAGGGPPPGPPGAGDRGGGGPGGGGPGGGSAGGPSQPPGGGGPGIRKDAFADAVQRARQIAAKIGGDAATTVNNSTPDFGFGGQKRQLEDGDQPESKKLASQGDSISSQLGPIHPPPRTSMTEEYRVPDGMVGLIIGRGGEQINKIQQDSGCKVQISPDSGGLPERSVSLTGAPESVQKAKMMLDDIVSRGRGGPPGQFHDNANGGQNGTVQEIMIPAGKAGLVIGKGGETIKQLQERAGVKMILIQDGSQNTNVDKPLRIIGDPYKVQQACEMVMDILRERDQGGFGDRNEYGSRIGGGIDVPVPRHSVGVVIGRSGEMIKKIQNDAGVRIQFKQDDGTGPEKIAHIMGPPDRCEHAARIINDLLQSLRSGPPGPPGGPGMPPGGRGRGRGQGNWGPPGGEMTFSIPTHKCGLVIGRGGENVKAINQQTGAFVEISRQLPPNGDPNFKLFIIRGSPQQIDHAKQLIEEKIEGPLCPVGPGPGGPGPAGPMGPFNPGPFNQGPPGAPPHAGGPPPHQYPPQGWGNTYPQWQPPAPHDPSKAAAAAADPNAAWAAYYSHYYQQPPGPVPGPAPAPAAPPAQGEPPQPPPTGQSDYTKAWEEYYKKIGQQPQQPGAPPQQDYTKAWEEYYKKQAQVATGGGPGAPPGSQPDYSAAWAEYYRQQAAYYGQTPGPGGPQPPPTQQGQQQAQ

[4] = biological target: T4, HeLa cell extract proteins (Homo sapiens, UniProt Q96T76)
T4 construct: endogenous in cells; host or cells: HeLa cell extract
T4 sequence (Q96T76 1-1030): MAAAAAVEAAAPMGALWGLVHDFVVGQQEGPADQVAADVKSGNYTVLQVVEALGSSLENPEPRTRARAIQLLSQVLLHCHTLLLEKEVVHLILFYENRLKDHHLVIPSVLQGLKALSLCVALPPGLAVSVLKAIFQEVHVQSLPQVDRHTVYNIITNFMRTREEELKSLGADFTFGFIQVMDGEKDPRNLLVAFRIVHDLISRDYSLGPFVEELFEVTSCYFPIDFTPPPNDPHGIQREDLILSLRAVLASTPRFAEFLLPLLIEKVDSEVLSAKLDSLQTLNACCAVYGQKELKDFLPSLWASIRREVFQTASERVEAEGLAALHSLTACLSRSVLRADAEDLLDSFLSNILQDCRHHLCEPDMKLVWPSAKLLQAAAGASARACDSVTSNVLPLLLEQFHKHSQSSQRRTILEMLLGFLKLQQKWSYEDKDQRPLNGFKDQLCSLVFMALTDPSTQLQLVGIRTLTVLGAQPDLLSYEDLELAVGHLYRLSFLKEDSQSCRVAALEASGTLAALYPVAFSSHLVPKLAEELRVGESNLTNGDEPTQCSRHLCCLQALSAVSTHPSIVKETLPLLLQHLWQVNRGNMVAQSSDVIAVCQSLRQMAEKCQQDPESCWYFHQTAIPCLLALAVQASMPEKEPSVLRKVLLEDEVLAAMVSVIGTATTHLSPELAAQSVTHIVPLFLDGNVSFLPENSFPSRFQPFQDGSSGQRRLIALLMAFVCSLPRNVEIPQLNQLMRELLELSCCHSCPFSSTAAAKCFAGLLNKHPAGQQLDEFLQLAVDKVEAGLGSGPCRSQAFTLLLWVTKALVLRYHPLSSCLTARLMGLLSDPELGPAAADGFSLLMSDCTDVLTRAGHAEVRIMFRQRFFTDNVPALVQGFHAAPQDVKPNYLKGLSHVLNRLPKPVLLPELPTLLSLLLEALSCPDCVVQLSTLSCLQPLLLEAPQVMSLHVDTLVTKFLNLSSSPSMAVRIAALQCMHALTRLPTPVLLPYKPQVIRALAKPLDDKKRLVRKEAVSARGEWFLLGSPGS

[5] = biological target: T5, HeLa cell extract proteins (Homo sapiens, UniProt Q9Y573)
T5 construct: endogenous in cells; host or cells: HeLa cell extract
T5 sequence (Q9Y573 1-584): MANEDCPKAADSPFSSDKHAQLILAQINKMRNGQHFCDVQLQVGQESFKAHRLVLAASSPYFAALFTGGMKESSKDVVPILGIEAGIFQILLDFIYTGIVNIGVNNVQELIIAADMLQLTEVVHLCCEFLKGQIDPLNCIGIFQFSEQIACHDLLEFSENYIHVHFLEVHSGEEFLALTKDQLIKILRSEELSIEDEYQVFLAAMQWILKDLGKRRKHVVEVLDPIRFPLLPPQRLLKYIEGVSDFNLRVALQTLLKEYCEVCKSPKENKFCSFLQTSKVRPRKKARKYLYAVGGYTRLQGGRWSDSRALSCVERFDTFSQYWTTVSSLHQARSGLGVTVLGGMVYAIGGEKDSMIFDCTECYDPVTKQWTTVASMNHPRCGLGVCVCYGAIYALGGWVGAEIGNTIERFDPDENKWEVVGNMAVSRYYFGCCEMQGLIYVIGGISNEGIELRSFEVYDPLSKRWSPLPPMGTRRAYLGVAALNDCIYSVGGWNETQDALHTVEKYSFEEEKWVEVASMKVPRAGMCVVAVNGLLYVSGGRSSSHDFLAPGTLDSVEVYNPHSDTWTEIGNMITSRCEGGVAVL

[6] = HeLa, protein G3P1_HUMAN (GLYCERALDEHYDE-3-PHOSPHATE DEHYDROGENASE, MUSCLE.)
[7] = HeLa, protein GAPDH (39 KDA PROTEIN.)
[8] = HeLa, protein IPP (ACTIN-BINDING PROTEIN IPP)

T1 sequence (P00367 54-558): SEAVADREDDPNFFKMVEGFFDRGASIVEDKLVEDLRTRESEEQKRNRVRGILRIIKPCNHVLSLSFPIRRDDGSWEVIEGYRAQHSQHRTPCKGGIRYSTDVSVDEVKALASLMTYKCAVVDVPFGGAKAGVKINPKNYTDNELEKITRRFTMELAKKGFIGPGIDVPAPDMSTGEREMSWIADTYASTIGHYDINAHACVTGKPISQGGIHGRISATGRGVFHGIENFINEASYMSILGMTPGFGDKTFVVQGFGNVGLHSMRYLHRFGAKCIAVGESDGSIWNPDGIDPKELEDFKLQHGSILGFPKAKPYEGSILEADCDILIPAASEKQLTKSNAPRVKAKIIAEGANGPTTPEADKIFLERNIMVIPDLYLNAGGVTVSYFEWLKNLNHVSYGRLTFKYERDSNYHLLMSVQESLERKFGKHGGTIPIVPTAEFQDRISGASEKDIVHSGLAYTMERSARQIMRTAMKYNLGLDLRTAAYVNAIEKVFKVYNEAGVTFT

`Nc1nc2cccc(-c3ccccc3)c2n1Cc1ccc(Cl)c(Cl)c1` [compound 3] was tested, and the “fold changes relative to vehicle control” value ([1]; protein GLUD1, HeLa) was 0.92, the “fold changes relative to vehicle control” value [2, 6] was 0.84 fold and the “fold changes relative to vehicle control” value [2, 7] was 0.95 fold. For the same compound, the “fold changes relative to vehicle control” value ([3]; captured protein KHSRP, HeLa) was 0.84, the “fold changes relative to vehicle control” value ([4]; captured protein MMS19, HeLa) was 1.02 and the “fold changes relative to vehicle control” value ([5]; protein IPP, HeLa) was 0.93.
With `NCCOCCOCC(=O)Nc1nc2ncc(CNc3ccc(C(=O)NC(CCC(=O)O)C(=O)O)cc3)nc2c(=O)[nH]1` (centres unmarked) [compound 6] the “fold changes relative to vehicle control” value ([1]; HeLa, protein GLUD1) was 1.07, the “fold changes relative to vehicle control” value ([2]; protein GAPDH, HeLa) was 1.35 and the “fold changes relative to vehicle control” value ([3]; HeLa, protein KHSRP) was 0.96. For the same compound, the “fold changes relative to vehicle control” value ([4]; HeLa, protein MMS19) was 0.97 and the “fold changes relative to vehicle control” value [5, 8] was 0.89.
`Nc1nc2[nH]cc(CCc3ccc(C(=O)N[C@@H](CCC(=O)O)C(=O)O)cc3)c2c(=O)[nH]1` [PTX, pemetrexed] was tested, and the “fold changes relative to vehicle control” value [1] was 1.01, the “fold changes relative to vehicle control” value [2] was 1.14 and the “fold changes relative to vehicle control” value [3] was 0.97. The “fold changes relative to vehicle control” value [4] was 0.82 and the “fold changes relative to vehicle control” value [5] was 0.92.
In the case of `Nc1nc2c(c(=O)[nH]1)N(C=O)C(CNc1ccc(C(=O)N[C@@H](CCC(=O)O)C(=O)O)cc1)CN2` (some centres unmarked) [LEU, leucovorin], the “fold changes relative to vehicle control” value ([1]; HeLa, protein GLUD1) is reported as 1.06, the “fold changes relative to vehicle control” value ([2]; protein GAPDH, HeLa) is reported as 1.01 and the “fold changes relative to vehicle control” value ([3]; HeLa, protein KHSRP) is reported as 0.9. For the same compound, the “fold changes relative to vehicle control” value ([4]; HeLa, protein MMS19) was 0.87 and the “fold changes relative to vehicle control” value [5, 8] was 0.99.
`CCCCCCOc1ccc(Cc2cnc(N)nc2N)cc1` [compound 1] was tested, and the “fold changes relative to vehicle control” value ([1]; protein GLUD1, HeLa) was 1.09, the “fold changes relative to vehicle control” value [2, 6] was 1.39 fold and the “fold changes relative to vehicle control” value [2, 7] was 1.52 fold. The “fold changes relative to vehicle control” value ([3]; captured protein KHSRP, HeLa) was 0.74, the “fold changes relative to vehicle control” value ([4]; captured protein MMS19, HeLa) was 0.79 and the “fold changes relative to vehicle control” value ([5]; protein IPP, HeLa) was 1.03.
For `NCCCNc1ccc(C(=O)NC(CCC(=O)O)C(=O)O)cc1` (centres unmarked) [compound 7], the “fold changes relative to vehicle control” value ([1]; HeLa, protein GLUD1) was 0.97, the “fold changes relative to vehicle control” value ([2]; protein GAPDH, HeLa) was 0.97 and the “fold changes relative to vehicle control” value ([3]; HeLa, protein KHSRP) was 0.95. The “fold changes relative to vehicle control” value ([4]; HeLa, protein MMS19) was 1.02 and the “fold changes relative to vehicle control” value [5, 8] was 0.9.
For `CCCCCCOc1cccc(Cc2cnc(N)nc2N)c1` [compound 2], the “fold changes relative to vehicle control” value ([1]; protein GLUD1, HeLa) was 1.33, the “fold changes relative to vehicle control” value [2, 6] was 2.61 fold and the “fold changes relative to vehicle control” value [2, 7] was 2.46 fold. For the same compound, the “fold changes relative to vehicle control” value ([3]; captured protein KHSRP, HeLa) was 0.96, the “fold changes relative to vehicle control” value ([4]; captured protein MMS19, HeLa) was 0.94 and the “fold changes relative to vehicle control” value ([5]; protein IPP, HeLa) was 1.05.
